# Measured values: patent publication US4410516A, “1-N(αHydroxy-ω-aminoalkanoyl) derivatives of 5,3',4'-trideoxy- or 5,3', 4'-trideoxy-6'-N- methyl- or 5, 3', 4',6"-tetradeoxykannamyci B and production thereof” (Zaidan Hojin Biseibutsu Kagaku Kenkyu Kai, priority 1981, dated 1983)
# Where two headings read alike, the source gives them in different places.
# Assays:
# [1] = test system: Staphylococcus aureus 209P; test: Minimum inhibitory concentration, serial dilution on nutrient agar; type: cell-based; conditions: 37° C., 18 hours incubation
# [2] = test system: Staphylococcus aureus AP01; test: as above; type: cell-based; conditions: 37° C., 18 hours incubation
# [3] = test system: Staphylococcus epidermidis 109; test: as above; type: cell-based; conditions: Staphylococcus epidermidis, 109; nutrient agar, 37° C., 18 hours incubation; read-out: MIC
# [4] = test system: Micrococcus flavus FDA 16; test: as above; type: cell-based; conditions: FDA16, 18 h
# [5] = test system: Sarcina lutea PCI 1001; test: as above; type: cell-based; conditions: Micrococcus luteus, PCI1001; nutrient agar, 37° C., 18 hours incubation; read-out: MIC
# [6] = test system: Bacillus anthracis; test: microbe, parasite or virus in culture; type: cell-based; conditions: 18 h
# [7] = test system: Bacillus cereus ATCC 10702; test: Minimum inhibitory concentration, serial dilution on nutrient agar; type: cell-based; conditions: ATCC10702, nutrient agar, 37° C., 18 hours incubation, read-out: MIC
# [8] = test system: Mycobacterium smegmatis ATCC 607; test: as above; type: cell-based; conditions: Mycolicibacterium smegmatis, ATCC607; nutrient agar, 37° C., 18 hours incubation; read-out: MIC
# [9] = test system: Escherichia coli NIHJ; test: as above; type: cell-based
# [10] = test system: Escherichia coli K-12; test: as above; type: cell-based
# [11] = test system: Escherichia coli K-12 R5; test: as above; type: cell-based; conditions: K12R5, 18 h
# [12] = test system: Escherichia coli K-12 R 388; test: as above; type: cell-based; conditions: K12R388, 18 h
# [13] = test system: Escherichia coli K-12 ML 1629; test: as above; type: cell-based
# [14] = test system: Escherichia coli K-12 ML 1410; test: as above; type: cell-based
# [15] = test system: Escherichia coli K-12 LA 290 R55; test: as above; type: cell-based; conditions: K12LA290R55, 18 h
# [16] = test system: Escherichia coli K-12 LA 290 R56; test: as above; type: cell-based; conditions: K12LA290R56, 18 h
# [17] = test system: Escherichia coli K-12 LA 290 R64; test: as above; type: cell-based; conditions: K12LA290R64, 18 h
# [18] = test system: Escherichia coli W677; test: as above; type: cell-based
# [19] = test system: Escherichia coli JR255; test: as above; type: cell-based
# [20] = test system: Klebsiella pneumoniae PCI 602; test: as above; type: cell-based
# [21] = test system: Klebsiella pneumoniae 22 #3038; test: as above; type: cell-based; conditions: 18 h
# [22] = test system: Shigella dysenteriae JS 11910; test: as above; type: cell-based; conditions: JS11910, 18 h
# [23] = test system: Salmonella typhi T-63; test: as above; type: cell-based; conditions: Salmonella enterica, 18 h
# [24] = test system: Salmonella enteritidis 1891; test: as above; type: cell-based; conditions: Salmonella enterica, 18 h
# [25] = test system: Proteus vulgaris OX19; test: as above; type: cell-based; conditions: 37° C., 18 hours incubation
# [26] = test system: Proteus rettgeri GN311; test: as above; type: cell-based; conditions: Providencia rettgeri, 37° C., 18 hours incubation
# [27] = test system: Serratia marcescens; test: as above; type: cell-based; conditions: 37° C., 18 hours incubation
# [28] = test system: Serratia SOU; test: as above; type: cell-based; conditions: 37° C., 18 hours incubation
# [29] = test system: Serratia 4; test: as above; type: cell-based; conditions: 37° C., 18 hours incubation
# [30] = test system: Providencia Pv 16; test: as above; type: cell-based; conditions: PV16, 37° C., 18 hours incubation
# [31] = test system: Providencia 2991; test: as above; type: cell-based; conditions: 37° C., 18 hours incubation
# [32] = test system: Pseudomonas aeruginosa A3; test: as above; type: cell-based; conditions: 37° C., 18 hours incubation
# [33] = test system: Pseudomonas aeruginosa No. 12; test: as above; type: cell-based
# [34] = test system: Pseudomonas aeruginosa H9; test: as above; type: cell-based
# [35] = test system: Pseudomonas aeruginosa TI-13; test: as above; type: cell-based
# [36] = test system: Pseudomonas aeruginosa GN315; test: as above; type: cell-based
# [37] = test system: Pseudomonas aeruginosa 99; test: as above; type: cell-based; conditions: Pseudomonas aeruginosa, 99; nutrient agar, 37° C., 18 hours incubation; read-out: MIC
# [38] = test system: Pseudomonas aeruginosa B-13; test: as above; type: cell-based; conditions: B13, 37° C., 18 hours incubation
# [39] = test system: Pseudomonas aeruginosa 21-75; test: as above; type: cell-based; conditions: 2175, 37° C., 18 hours incubation
# [40] = test system: Pseudomonas aeruginosa PST1; test: as above; type: cell-based
# [41] = test system: Pseudomonas aeruginosa ROS134/PU21; test: as above; type: cell-based; conditions: ROS134/PU21, 18 h
# [42] = Acute toxicity by intravenous injection in mice; conditions: mouse, in vivo
structure (smiles),measurement,setting,value
"NCC(O)C(=O)N[C@@H]1C[C@H](N)[C@@H](O[C@H]2O[C@H](CN)CC[C@H]2N)C[C@H]1O[C@H]1O[C@H](CO)[C@@H](O)[C@H](N)[C@H]1O (stereo partly drawn) [AHP-trideoxyKMB, 1-N-[(RS)-3-amino-2-hydroxypropionyl]-5,3',4'-trideoxykanamycin B]",MIC,[1],< 0.2 mg/L
same,MIC,[2],0.78 mg/L
same,MIC,[3],0.78 mg/L
same,MIC,[4],6.25 mg/L
same,MIC,[5],0.78 mg/L
same,MIC,[6],< 0.2 mg/L
same,MIC,[7],0.78 mg/L
same,MIC,[8],0.2 mg/L
same,MIC,"[9]; nutrient agar, 37° C., 18 hours incubation, read-out: MIC",1.56 mg/L
same,MIC,"[10]; K12, nutrient agar, 37° C., 18 hours incubation, read-out: MIC",1.56 mg/L
same,MIC,[11],100 mg/L
same,MIC,[12],1.56 mg/L
same,MIC,"[13]; K12ML1629, nutrient agar, 37° C., 18 hours incubation, read-out: MIC",3.13 mg/L
same,MIC,"[14]; K12ML1410, nutrient agar, 37° C., 18 hours incubation, read-out: MIC",1.56 mg/L
same,MIC,[15],3.13 mg/L
same,MIC,[16],1.56 mg/L
same,MIC,[17],1.56 mg/L
same,MIC,"[18]; W677, nutrient agar, 37° C., 18 hours incubation, read-out: MIC",1.56 mg/L
same,MIC,"[19]; JR255, nutrient agar, 37° C., 18 hours incubation, read-out: MIC",1.56 mg/L
same,MIC,"[20]; PCI602, nutrient agar, 37° C., 18 hours incubation, read-out: MIC",1.56 mg/L
same,MIC,[21],6.25 mg/L
same,MIC,[22],6.25 mg/L
same,MIC,[23],50 mg/L
same,MIC,[24],6.25 mg/L
same,MIC,[25],0.78 mg/L
same,MIC,[26],25 mg/L
same,MIC,[27],25 mg/L
same,MIC,[28],> 100 mg/L
same,MIC,[29],25 mg/L
same,MIC,[30],25 mg/L
same,MIC,[31],25 mg/L
same,MIC,[32],0.78 mg/L
same,MIC,"[33]; NO.12, nutrient agar, 37° C., 18 hours incubation, read-out: MIC",3.13 mg/L
same,MIC,"[34]; H9, nutrient agar, 37° C., 18 hours incubation, read-out: MIC",3.13 mg/L
same,MIC,"[35]; TI13, nutrient agar, 37° C., 18 hours incubation, read-out: MIC",3.13 mg/L
same,MIC,"[36]; GN315, nutrient agar, 37° C., 18 hours incubation, read-out: MIC",50 mg/L
same,MIC,[37],3.13 mg/L
same,MIC,[38],12.5 mg/L
same,MIC,[39],12.5 mg/L
same,MIC,"[40]; PST1, 18 h",6.25 mg/L
same,MIC,[41],> 100 mg/L
same,LD50,[42],25 to 50 mg/kg
"CNC[C@@H]1CC[C@@H](N)[C@@H](O[C@H]2C[C@@H](O[C@H]3O[C@H](CO)[C@@H](O)[C@H](N)[C@H]3O)[C@H](NC(=O)C(O)CN)C[C@@H]2N)O1 (stereo partly drawn) [AHP-trideoxyMKMB, 1-N-[(RS)-3-amino-2-hydroxypropionyl]-5,3',4'-trideoxy-6'-N-methylkanamycin B]",MIC,[1],0.39 mg/L
same,MIC,[2],< 0.2 mg/L
same,MIC,[3],< 0.2 mg/L
same,MIC,[4],3.13 mg/L
same,MIC,[5],0.78 mg/L
same,MIC,[6],< 0.2 mg/L
same,MIC,[7],1.56 mg/L
same,MIC,[8],0.39 mg/L
same,MIC,[9]; 18 h,3.13 mg/L
same,MIC,"[10]; K12, 18 h",3.13 mg/L
same,MIC,[11],12.5 mg/L
same,MIC,[12],1.56 mg/L
same,MIC,"[13]; K12ML1629, 18 h",3.13 mg/L
same,MIC,"[14]; K12ML1410, 18 h",3.13 mg/L
same,MIC,[15],6.25 mg/L
same,MIC,[16],3.13 mg/L
same,MIC,[17],3.13 mg/L
same,MIC,"[18]; W677, 18 h",3.13 mg/L
same,MIC,"[19]; JR255, 18 h",3.13 mg/L
same,MIC,"[20]; PCI602, 18 h",3.13 mg/L
same,MIC,[21],3.13 mg/L
same,MIC,[22],6.25 mg/L
same,MIC,[23],3.13 mg/L
same,MIC,[24],6.25 mg/L
same,MIC,[25],0.78 mg/L
same,MIC,[26],25 mg/L
same,MIC,[27],12.5 mg/L
same,MIC,[28],50 mg/L
same,MIC,[29],12.5 mg/L
same,MIC,[30],50 mg/L
same,MIC,[31],50 mg/L
same,MIC,[32],0.78 mg/L
same,MIC,"[33]; NO.12, 18 h",3.13 mg/L
same,MIC,"[34]; H9, 18 h",3.13 mg/L
same,MIC,"[35]; TI13, 18 h",3.13 mg/L
same,MIC,"[36]; GN315, 18 h",3.13 mg/L
same,MIC,[37],12.5 mg/L
same,MIC,[38],25 mg/L
same,MIC,[39],25 mg/L
same,MIC,"[40]; PST1, nutrient agar, 37° C., 18 hours incubation, read-out: MIC",25 mg/L
same,MIC,[41],50 mg/L
same,LD50,[42],50 to 100 mg/kg
